Assay results from patent US11395821B2, “Treatment of EGFR-driven cancer with fewer side effects” (G1 Therapeutics, Inc., priority 2017, dated 2022).
“Also recorded” adds a separate entry of the source.

How the values were obtained:
[1] = tested on: H1975 (EGFR^L858R/T790M NSCLC Model); assay: Example 1: Compound IV + afatinib in H1975 tumor bearing mice; type: in vivo; settings: Compound IV 50 or 100 mg/kg in combination with afatinib 20 mg/kg, daily, 18 days
Protocol: (§1) The x-axis is days of treatment measured in time and the y-axis is tumor volume measured in mm^3.
Compound IV in combination with the EGFR-TKI afatinib was tested in an EGFR^L858R/T790M NSCLC model. The combination of Compound IV in dosages of 50 mg/kg and 100 mg/kg+afatinib was tested and compared to treatment regimens consisting of only Compound IV (in 50 mg/kg dose or a 100 mg/kg) or afatinib (20 mg/kg). H1975 (EGFR^L858R/T790M NSCLC Model) tumor bearing mice were treated daily. Tumors were measured twice a week until vehicle treated mice tumors reached about 1000 mm^3 (18 days). Data is plotted to compare tumor growth in each cohort during the 18 days of treatment.

[2] = tested on: H1975 (EGFR^L858R/T790M NSCLC Model); assay: Example 2: Compound IV + erlotinib in H1975 tumor bearing mice; type: in vivo; settings: Compound IV 50 or 100 mg/kg in combination with erlotinib 70 mg/kg, daily, 18 days
Protocol: as §1
Compound IV in combination with the EGFR-TKI erlotinib was tested in an EGFR^L858R/T790M NSCLC model. The combination of Compound IV in dosages of 50 mg/kg and 100 mg/kg+erlotinib was tested and compared to treatment regimens consisting of only Compound IV (in 50 mg/kg dose or a 100 mg/kg) or erlotinib (70 mg/kg). H1975 (EGFR^L858R/T790M NSCLC Model) tumor bearing mice were treated daily. Tumors were measured twice a week until vehicle treated mice tumors reached about 1000 mm^3 (18 days). Data is plotted to compare tumor growth in each cohort during the 18 days of treatment.

[3] = tested on: EGFR^ex19del/T790M PDX NSCLC tumor fragments (TM00219, Jackson Labs); assay: Example 4: Compound IV +/- osimertinib in EGFR ex19del/T790M PDX model; type: in vivo, NSG mice; settings: once daily oral gavage 28 days
Source text: The x-axis is days from initiation measured in time and the y-axis is mean tumor volume measured in mm^3.
The x-axis is days from initiation measured in time and the y-axis is median tumor volume measured in mm^3.
After 28 days tumors continued to be measured until they reached tumor burden (>2000 mm^3).

[4] = G1T38-02: G1T38-related TEAEs by CTCAE grade; type: in vivo, Humans; settings: N = 18

For `CC(C)N1CCN(c2ccc(Nc3ncc4cc5n(c4n3)C3(CCCCC3)CNC5=O)nc2)CC1` [Compound IV], the “afatinib efficacy and time to resistance (tumor volume)” value [1] was “increased the afatinib efficacy and extended the time to resistance; also recorded: increases EGFR-TKI efficacy and extends time to resistance”, the “decrease of tumor volume, combination vs Compound IV alone and afatinib alone” value [1] was “more effective at decreasing tumor volume” and the “erlotinib resistance (tumor volume)” value [2] was “reversed erlotinib resistance; also recorded: reverses EGFR-TKI acquired resistance”. For the same molecule, the “tumor growth vs vehicle, combination” value ([3]; Compound IV 100 mg/kg + osimertinib 2.5 mg/kg) was “tumor stasis during dosing that was sustained post treatment; also recorded: delays tumor growth”, the “tumor growth vs vehicle, single agent” value ([3]; Compound IV 100 mg/kg or osimertinib 2.5 mg/kg alone) was “modest tumor growth inhibition” and the “G1T38-related TEAE: Alopecia” value ([4]; Grade 1-2) was 1 (5.6) n (%). For the same molecule, the “G1T38-related TEAE: Anaemia” value ([4]; Grade 1-2) was 6 (33.3) n (%), the “G1T38-related TEAE: Blood bilirubin increased” value ([4]; Grade 1-2) was 1 (5.6) n (%) and the “G1T38-related TEAE: Blood creatinine increased” value ([4]; Grade 1-2) was 2 (11.1) n (%). The “G1T38-related TEAE: Blood lactate dehydrogenase increased” value ([4]; Grade 1-2) was 1 (5.6) n (%), the “G1T38-related TEAE: Blood urea increased” value ([4]; Grade 1-2) was 1 (5.6) n (%) and the “G1T38-related TEAE: Diarrhoea” value ([4]; Grade 1-2) was 5 (27.8) n (%). For the same molecule, the “G1T38-related TEAE: Dry eye” value ([4]; Grade 1-2) was 1 (5.6) n (%), the “G1T38-related TEAE: Dry mouth” value ([4]; Grade 1-2) was 1 (5.6) n (%) and the “G1T38-related TEAE: Haematuria” value ([4]; Grade 1-2) was 3 (16.7) n (%). For the same molecule, the “G1T38-related TEAE: Lacrimation increased” value ([4]; Grade 1-2) was 1 (5.6) n (%), the “G1T38-related TEAE: Leukopenia” value ([4]; Grade 1-2) was 1 (5.6) n (%) and the “G1T38-related TEAE: Monocyte count decreased” value ([4]; Grade 1-2) was 1 (5.6) n (%). The “G1T38-related TEAE: Nausea” value ([4]; Grade 1-2) was 5 (27.8) n (%), the “G1T38-related TEAE: Neutropenia” value ([4]; Grade 1-2) was 3 (16.7) n (%) and the “G1T38-related TEAE: Neutrophil count deceased” value ([4]; Grade 1-2) was 7 (38.9) n (%). The “G1T38-related TEAE: Platelet count decreased” value ([4]; Grade 1-2) was 2 (11.1) n (%), the “G1T38-related TEAE: Stomatitis” value ([4]; Grade 1-2) was 1 (5.6) n (%) and the “G1T38-related TEAE: Thombocytopenia” value ([4]; Grade 1-2) was 1 (5.6) n (%). For the same molecule, the “G1T38-related TEAE: Vomiting” value ([4]; Grade 1-2) was 3 (16.7) n (%), the “G1T38-related TEAE: White blood cell count decreased” value ([4]; Grade 1-2) was 7 (38.9) n (%) and the “Number (%) of patients with any G1T38-related TEAEs” value ([4]; Grade 1-2) was 11 (61.1) n (%). The “G1T38-related TEAE: Alopecia” value ([4]; Grade 3) was 0 n (%), the “G1T38-related TEAE: Anaemia” value ([4]; Grade 3) was 0 n (%) and the “G1T38-related TEAE: Blood bilirubin increased” value ([4]; Grade 3) was 0 n (%). For the same molecule, the “G1T38-related TEAE: Blood creatinine increased” value ([4]; Grade 3) was 0 n (%), the “G1T38-related TEAE: Blood lactate dehydrogenase increased” value ([4]; Grade 3) was 0 n (%) and the “G1T38-related TEAE: Blood urea increased” value ([4]; Grade 3) was 0 n (%). The “G1T38-related TEAE: Diarrhoea” value ([4]; Grade 3) was 0 n (%), the “G1T38-related TEAE: Dry eye” value ([4]; Grade 3) was 0 n (%) and the “G1T38-related TEAE: Dry mouth” value ([4]; Grade 3) was 0 n (%). The “G1T38-related TEAE: Haematuria” value ([4]; Grade 3) was 0 n (%), the “G1T38-related TEAE: Lacrimation increased” value ([4]; Grade 3) was 0 n (%) and the “G1T38-related TEAE: Leukopenia” value ([4]; Grade 3) was 0 n (%). The “G1T38-related TEAE: Monocyte count decreased” value ([4]; Grade 3) was 0 n (%), the “G1T38-related TEAE: Nausea” value ([4]; Grade 3) was 0 n (%) and the “G1T38-related TEAE: Neutropenia” value ([4]; Grade 3) was 1 (5.6) n (%). The “G1T38-related TEAE: Neutrophil count deceased” value ([4]; Grade 3) was 2 (11.1) n (%), the “G1T38-related TEAE: Platelet count decreased” value ([4]; Grade 3) was 0 n (%) and the “G1T38-related TEAE: Stomatitis” value ([4]; Grade 3) was 0 n (%). For the same molecule, the “G1T38-related TEAE: Thombocytopenia” value ([4]; Grade 3) was 0 n (%), the “G1T38-related TEAE: Vomiting” value ([4]; Grade 3) was 0 n (%) and the “G1T38-related TEAE: White blood cell count decreased” value ([4]; Grade 3) was 0 n (%). For the same molecule, the “Number (%) of patients with any G1T38-related TEAEs” value ([4]; Grade 3) was 3 (16.7) n (%), the “G1T38-related TEAE: Alopecia” value ([4]; Grade 4) was 0 n (%) and the “G1T38-related TEAE: Anaemia” value ([4]; Grade 4) was 0 n (%). For the same molecule, the “G1T38-related TEAE: Blood bilirubin increased” value ([4]; Grade 4) was 0 n (%), the “G1T38-related TEAE: Blood creatinine increased” value ([4]; Grade 4) was 0 n (%) and the “G1T38-related TEAE: Blood lactate dehydrogenase increased” value ([4]; Grade 4) was 0 n (%). The “G1T38-related TEAE: Blood urea increased” value ([4]; Grade 4) was 0 n (%), the “G1T38-related TEAE: Diarrhoea” value ([4]; Grade 4) was 0 n (%) and the “G1T38-related TEAE: Dry eye” value ([4]; Grade 4) was 0 n (%). For the same molecule, the “G1T38-related TEAE: Dry mouth” value ([4]; Grade 4) was 0 n (%).
